One experiment relates to HIV-1 (H9IIIB strain). The experiment in a line: Antiviral Assays in Cell Culture (Spread), acute infection assay. The settings on record: Human immunodeficiency virus 1, T-lymphoid, read-out: Viking 50% (nM). The experiment is classed as cell-based. From the text: Antiviral Assays in Cell Culture (“Spread”)
Acute Infection Assay (“Spread”) data were generated using HIV-1 (H9IIIB strain) infection of MT-4 human T-lymphoid cells in 10% FBS, and according to the methods disclosed by J. P. Vacca et al, “L-735,524: An orally bioavailable human immunodeficiency virus type 1 protease inhibitor,” Proc. Natl. Acad. Sci. USA, Vol. 91, pp. 4096-4100 (April 1994).

A further experiment addresses T1, wildtype HIV-1 protease (Human immunodeficiency virus type 1 group M subtype B, UniProt P04585).
T1 construct: preincubated with the HIV-1 protease (wild type) enzyme in assay buffer; made in house; host or cells: Escherichia coli
The experiment in a line: Assay for Inhibition of Microbial Expressed HIV Protease (Pepcleav). Format: biochemical. Put shortly: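 E. coli-expressed wildtype protease (20 pM final) preincubated with inhibitor 30 min at room temperature in 50 mM sodium acetate pH 5.5, 100 mM NaCl, 0.1% BSA. Reaction with 400 μM peptide substrate ran 1 h at 30° C. Inhibition derived from LC-MS/MS (MRM) product peak area.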

For the molecule `Cc1ccc2nc([C@@H]3CO[C@H](CCc4c(F)cncc4NC(=O)C[C@@H](c4ccc(F)cc4)c4cc(F)cc(F)c4)CN3)[nH]c2c1` [Example 66, (3S)-3-(3,5-difluorophenyl)-N-(5-fluoro-4-{2-[(2R,5R)-5-(6-methyl-1H-benzimidazol-2-yl)morpholin-2-yl]ethyl}pyridin-3-yl)-3-(4-fluorophenyl)propanamide], the EC50 in the experiment with HIV-1 (H9IIIB strain) is 22 nM.
Turning to `Cc1cc2nc([C@@H]3CO[C@H](CCc4c(F)cncc4NC(=O)C[C@H](c4cccc(F)c4)c4ccc(Cl)c(F)c4)CN3)[nH]c2cc1C` [Example 67, (3R)-3-(4-chloro-3-fluorophenyl)-N-(4-{2-[(2R,5R)-5-(5,6-dimethyl-1H-benzimidazol-2-yl)morpholin-2-yl]ethyl}-5-fluoropyridin-3-yl)-3-(3-fluorophenyl)propanamide], in the experiment with HIV-1 (H9IIIB strain), the EC50 stood at 23 nM.
Consider `Cc1cc2nc([C@@H]3CO[C@H](CCc4c(F)cncc4NC(=O)C[C@H](c4cncc(F)c4)c4ccc(Cl)c(F)c4)CN3)[nH]c2cc1C` [Example 68, (3S)-3-(4-chloro-3-fluorophenyl)-N-(4-{2-[(2R,5R)-5-(5,6-dimethyl-1H-benzimidazol-2-yl)morpholin-2-yl]ethyl}-5-fluoropyridin-3-yl)-3-(5-fluoropyridin-3-yl)propanamide], for which, in the experiment with HIV-1 (H9IIIB strain), the EC50 was 52 nM.
By IC50 is commonly meant the point on the concentration scale where inhibition reaches its midpoint. Low readings indicate higher potency, high ones lower potency. Molecule `Cc1cc2nc([C@@H]3CO[C@H](CCc4c(F)cncc4NC(=O)C[C@H](c4ccccc4)c4ccc(F)cc4)CN3)[nH]c2cc1C` [Example 69, (3R)—N-(4-{2-[(2R,5R)-5-(5,6-dimethyl-1H-benzimidazol-2-yl)morpholin-2-yl]ethyl}-5-fluoropyridin-3-yl)-3-(4-fluorophenyl)-3-phenylpropanamide] displayed an IC50 against wildtype HIV-1 protease of 0.01 nM. Besides, the EC50 with HIV-1 (H9IIIB strain) was determined as 80 nM.

Values taken from patent US9737545B2 (MERCK SHARP & DOHME CORP., priority 2013, dated 2017).
